Measurements as given in US8569301B2, “6, 6-dioxo-6-thia-1, 4-diaza-naphthalenes as herbicides” (Syngenta Limited, priority 2009, dated 2013).

Tests used:
Format in all cases: in vivo
Conditions in all cases: sprayed after 8 days cultivation, evaluated after 13 days, scores from 10 to 0 (10=total damage to plant; 0=no damage to plant)
ECHCG = assay: Example B1 herbicidal action post-emergence, ECHCG
Experimental: (§1) Seeds of a variety of test species were sown in standard soil in pots. After 8 days cultivation (post-emergence) under controlled conditions in a glasshouse (at 24/16° C., day/night; 14 hours light; 65% humidity), the plants were sprayed with an aqueous spray solution derived from the formulation of the technical active ingredient in acetone/water (50:50) solution containing 0.5% Tween 20 (polyoxyethelyene sorbitan monolaurate, CAS RN 9005-64-5). The test plants were then grown under controlled conditions in a glasshouse (at 24/16° C., day/night; 14 hours light; 65% humidity) and watered twice daily. After 13 days, the test was evaluated and the assessed scores, from 10 to 0, are tabulated in Table B1 (10=total damage to plant; 0=no damage to plant).

SETFA = assay: Example B1 herbicidal action post-emergence, SETFA
Experimental: as §1

AMARE = assay: Example B1 herbicidal action post-emergence, AMARE
Experimental: as §1

IPOHE = assay: Example B1 herbicidal action post-emergence, IPOHE
Experimental: as §1

SOLNI = assay: Example B1 herbicidal action post-emergence, SOLNI
Experimental: as §1

Row | SMILES | assessed score, application post-emergence, ECHCG (ECHCG; Rate 1000 g/ha) | assessed score, application post-emergence, SETFA (SETFA; Rate 1000 g/ha) | assessed score, application post-emergence, AMARE (AMARE; Rate 1000 g/ha) | assessed score, application post-emergence, IPOHE (IPOHE; Rate 1000 g/ha) | assessed score, application post-emergence, SOLNI (SOLNI; Rate 1000 g/ha) | assessed score, application post-emergence, ECHCG (ECHCG; Rate 250 g/ha) | assessed score, application post-emergence, SETFA (SETFA; Rate 250 g/ha) | assessed score, application post-emergence, AMARE (AMARE; Rate 250 g/ha) | assessed score, application post-emergence, IPOHE (IPOHE; Rate 250 g/ha) | assessed score, application post-emergence, SOLNI (SOLNI; Rate 250 g/ha)
1 | O=S1(=O)C(c2c(F)ccc(Br)c2Cl)=C(O)c2nccnc2C1Cc1ccccc1 (stereo not drawn) [Compound E23] | 8 | 4 | 6 | 6 | 8 |  |  |  |  | 
2 | CCC1c2nccnc2C(O)=C(c2ccc(Br)cc2C(F)(F)F)S1(=O)=O (stereo not drawn) [Compound E14] | 7 | 6 | 9 | 7 | 10 |  |  |  |  | 
3 | CCc1cc(-c2ccc(Cl)cc2Cl)ccc1C1=C(O)c2nccnc2CS1(=O)=O [Compound C24] | 7 | 10 | 10 | 3 | 6 |  |  |  |  | 
4 | O=S1(=O)Cc2nccnc2C(O)=C1c1c(Cl)cccc1Cl [Compound C19] | 7 | 8 | 7 | 8 | 9 |  |  |  |  | 
5 | Cc1cc(C)c(C2=C(O)c3nccnc3C(CC(F)F)S2(=O)=O)c(C)c1 (stereo not drawn) [Compound E17] | 10 | 10 | 10 | 7 | 7 |  |  |  |  | 
6 | O=S1(=O)Cc2nccnc2C(O)=C1c1ccc(Cl)cc1C(F)(F)F [Compound C17] | 8 | 8 | 10 | 7 | 10 |  |  |  |  | 
7 | O=S1(=O)Cc2nccnc2C(O)=C1c1c(F)cccc1C(F)(F)F [Compound C6] | 1 | 2 | 4 | 0 | 3 |  |  |  |  | 
8 | O=S1(=O)Cc2nccnc2C(O)=C1c1cc(Cl)cc(C(F)(F)F)c1 [Compound C3] | 0 | 0 | 0 | 0 | 0 |  |  |  |  | 
9 | O=S1(=O)Cc2nccnc2C(O)=C1c1c(F)ccc(Br)c1Cl [Compound C21, 7-(3-bromo-2-chloro-6-fluoro-phenyl)-6,6-dioxo-5,6-dihydro-6-thia-1,4-diaza-naphthalen-8-ol] | 7 | 7 | 9 | 8 | 10 |  |  |  |  | 
10 | O=S1(=O)Cc2nccnc2C(O)=C1c1ccc(F)cc1Cl [Compound C8] | 3 | 5 | 5 | 1 | 7 |  |  |  |  | 
11 | O=S1(=O)Cc2nccnc2C(O)=C1c1c(F)ccc(Cl)c1Cl [Compound C1, 7-(2,3-dichloro-6-fluoro-phenyl)-6,6-dioxo-5,6-dihydro-6-λ-6-thia-1,4-diaza-naphthalen-8-ol] | 7 | 8 | 10 | 8 | 8 |  |  |  |  | 
12 | O=S1(=O)Cc2nccnc2C(O)=C1c1cc(Cl)ccc1C(F)(F)F [Compound C7, 7-(5-chloro-2-trifluoromethyl-phenyl)-6,6-dioxo-5,6-dihydro-6-thia-1,4-diaza-naphthalen-8-ol] | 6 | 8 | 8 | 7 | 8 |  |  |  |  | 
13 | CC1(C)c2nccnc2C(O)=C(c2c(Cl)cccc2C(F)(F)F)S1(=O)=O [Compound F9] | 8 | 8 | 9 | 9 | 8 |  |  |  |  | 
14 | O=S1(=O)Cc2nccnc2C(O)=C1c1cc(C(F)(F)F)ccc1C(F)(F)F [Compound C16] | 5 | 3 | 9 | 7 | 10 |  |  |  |  | 
15 | O=S1(=O)Cc2nccnc2C(O)=C1c1ccc(Br)cc1C(F)(F)F [Compound C22] | 5 | 5 | 10 | 7 | 9 |  |  |  |  | 
16 | CCC1c2nccnc2C(O)=C(c2c(Cl)cccc2C(F)(F)F)S1(=O)=O (stereo not drawn) [Compound E1, 7-(2-chloro-6-trifluoromethyl-phenyl)-5-ethyl-6,6-dioxo-5,6-dihydro-6-thia-1,4-diaza-naphthalen-8-ol] | 7 | 8 | 9 | 7 | 9 |  |  |  |  | 
17 | O=S1(=O)C(c2c(Cl)cccc2C(F)(F)F)=C(O)c2nccnc2C1CC(F)F (racemic) [Compound E4] | 6 | 6 | 9 | 7 | 8 |  |  |  |  | 
18 | CCC1c2nccnc2C(O)=C(c2c(F)ccc(Br)c2Cl)S1(=O)=O (stereo not drawn) [Compound E10] |  |  |  |  |  | 4 | 7 | 7 | 8 | 7
19 | O=S1(=O)Cc2nccnc2C(O)=C1c1ccccc1I [Compound C14] | 7 | 7 | 8 | 8 | 7 |  |  |  |  | 
20 | O=S1(=O)Cc2nccnc2C(O)=C1c1c(F)ccc(F)c1Cl [Compound C12] | 3 | 6 | 8 | 6 | 8 |  |  |  |  | 
21 | CC1c2nccnc2C(O)=C(c2c(F)ccc(Br)c2Cl)S1(=O)=O (stereo not drawn) [Compound E11] | 8 | 8 | 8 | 9 | 10 |  |  |  |  | 
22 | Cc1cc(C)c(C2=C(O)c3nccnc3C(C)S2(=O)=O)c(C)c1 (stereo not drawn) [Compound E19] | 5 | 5 | 3 | 7 | 8 |  |  |  |  | 
23 | CC1(C)c2nccnc2C(O)=C(c2cc(Cl)ccc2C(F)(F)F)S1(=O)=O [Compound F5] | 8 | 6 | 10 | 9 | 10 |  |  |  |  | 
24 | O=S1(=O)Cc2nccnc2C(O)=C1c1cccc(F)c1C(F)(F)F [Compound C10] | 5 | 6 | 6 | 6 | 8 |  |  |  |  | 
25 | Cc1cc(C)c(C2=C(O)c3nccnc3C(C)(C)S2(=O)=O)c(C)c1 [Compound F1, 5,5-dimethyl-6,6-dioxo-7-(2,4,6-trimethyl-phenyl)-5,6-dihydro-6-thia-1,4-diaza-naphthalen-8-ol] | 8 | 8 | 10 | 8 | 10 |  |  |  |  | 
26 | C#CCC1c2nccnc2C(O)=C(c2c(C)cc(C)cc2C)S1(=O)=O (stereo not drawn) [Compound E16] | 2 | 2 | 5 | 5 | 8 |  |  |  |  | 
27 | O=S1(=O)C(c2c(F)ccc(Br)c2Cl)=C(O)c2nccnc2C1Cc1ccc(Cl)s1 (stereo not drawn) [Compound E24] | 0 | 0 | 6 | 5 | 7 |  |  |  |  | 
